Data taken from ChEMBL document CHEMBL4382234, “Fluoroquinolone-isatin hybrids and their biological activities” (Eur J Med Chem, 2019).
Converted amounts (≈) assume the structure as drawn.

Columns and labels:
[1] = Toxicity in po dosed CF mouse measured after 1 week; format: organism-based; settings: in vivo
Escherichia coli [2] = assay: Antibacterial activity against Escherichia coli NCTC 10418 infected in po dosed CF mouse measured after 1 week; format: functional; settings: NCTC 10418, po, 168 h
HeLa = assay: Anticancer activity against human HeLa cells after 48 hrs by MTT assay; format: functional, cell-based
SW480 = assay: Anticancer activity against human SW480 cells after 48 hrs by MTT assay; format: functional, cell-based; settings: SW480, 48 h
A549 = assay: Anticancer activity against human A549 cells after 48 hrs by MTT assay; format: functional, cell-based; settings: A549, 48 h
HepG2 = assay: Anticancer activity against human HepG2 cells after 48 hrs by MTT assay; format: functional, cell-based; settings: HepG2, 48 h
[3] = test system: Mycobacterium tuberculosis; assay: Potency index, ratio of rifampicin MIC to test compound MIC for Mycobacterium tuberculosis H37Rv; format: functional
[4] = test system: Mycobacterium tuberculosis; assay: Antimycobacterial activity against Mycobacterium tuberculosis H37Rv after 3 to 7 days by rapid direct susceptibility test; format: functional
[5] = test system: Human immunodeficiency virus 1; assay: Antiviral activity against HIV1 3B infected in human MT4 cells after 5 days by spectrophotometric method; format: functional, organism-based; settings: Human immunodeficiency virus 1, 3B, MT4, 120 h
Vibrio cholerae = assay: Antibacterial activity against Vibrio cholerae by agar dilution method; format: functional
Pseudomonas aeruginosa = assay: Antibacterial activity against Pseudomonas aeruginosa by agar dilution method; format: functional
Shigella flexneri = assay: Antibacterial activity against Shigella flexneri by agar dilution method; format: functional
Klebsiella pneumoniae = assay: Antibacterial activity against Klebsiella pneumoniae by agar dilution method; format: functional
Staphylococcus aureus = assay: Antibacterial activity against Staphylococcus aureus by agar dilution method; format: functional
[6] = test system: Staphylococcus epidermidis; assay: Antibacterial activity against Staphylococcus epidermidis by agar dilution method; format: functional
Salmonella typhi = assay: Antibacterial activity against Salmonella typhi by agar dilution method; format: functional, Salmonella enterica subsp. enterica serovar Typhi; settings: Salmonella enterica
Escherichia coli [7] = assay: Antibacterial activity against Escherichia coli by agar dilution method; format: functional
Citrobacter freundii = assay: Antibacterial activity against Citrobacter freundii by agar dilution method; format: functional
[8] = test system: Human immunodeficiency virus 1; assay: Antiviral activity against HIV1 3B infected in human MT4 cells; format: functional, organism-based
[9] = test system: Mycobacterium tuberculosis; assay: Antimycobacterial activity against Mycobacterium tuberculosis H37Rv; format: functional
Escherichia coli [10] = assay: Potency index, ratio of norfloxacin ED50 to test compound ED50 for antibacterial activity against Escherichia coli NCTC 10418 infected in po dosed CF mouse; format: functional

CCn1cc(C(=O)O)c(=O)c2cc(F)c(N3CCNCC3)cc21 [NORFLOXACIN]
LD50 at 168 h [1]: 4000 mg/kg | ED50 (Escherichia coli [2]): 6 mg/kg

Cc1cc(C)nc(NS(=O)(=O)c2ccc(/N=C3\C(=O)N(CN4C(C)CN(c5c(F)c(N)c6c(=O)c(C(=O)O)cn(C7CC7)c6c5F)CC4C)c4ccccc43)cc2)n1 (configuration not stated)
IC50 (HeLa): 18.3 to 50 µg/mL (≈ 22.6 to 61.6 µM) | IC50 (SW480): 18.3 to 50 µg/mL (≈ 22.6 to 61.6 µM) | IC50 (A549): 18.3 to 50 µg/mL (≈ 22.6 to 61.6 µM) | IC50 (HepG2): 18.3 to 50 µg/mL (≈ 22.6 to 61.6 µM)

CC1CN(c2c(F)c(N)c3c(=O)c(C(=O)O)cn(C4CC4)c3c2F)CC(C)N1CN1C(=O)/C(=N\c2ccc(S(=O)(=O)Nc3ncccn3)cc2)c2ccccc21 (configuration not stated)
IC50 (HeLa): 18.3 to 50 µg/mL (≈ 23.4 to 63.8 µM) | IC50 (SW480): 18.3 to 50 µg/mL (≈ 23.4 to 63.8 µM) | IC50 (A549): 18.3 to 50 µg/mL (≈ 23.4 to 63.8 µM) | IC50 (HepG2): 18.3 to 50 µg/mL (≈ 23.4 to 63.8 µM)

CO/N=C1/C(=O)N(CCn2cc(CN3CCC[C@H]4CN(c5c(F)cc6c(=O)c(C(=O)O)cn(C7CC7)c6c5OC)C[C@H]43)nn2)c2ccc(Br)cc21
Ratio [3]: 4 | MIC [4]: 0.1 µg/mL (≈ 0.131 µM)

CCn1cc(C(=O)O)c(=O)c2cc(F)c(N3CCN(CN4C(=O)/C(=N\NC(N)=S)c5cc(Cl)ccc54)CC3)cc21
EC50 [5]: 11.3 µg/mL (≈ 19.3 µM)

CCn1cc(C(=O)O)c(=O)c2cc(F)c(N3CCNC(C)C3)c(F)c21 (configuration not stated) [LOMEFLOXACIN]
MIC (Vibrio cholerae): 0.1 to 2.5 µg/mL (≈ 0.285 to 7.12 µM) | MIC (Pseudomonas aeruginosa): 0.1 to 2.5 µg/mL (≈ 0.285 to 7.12 µM) | MIC (Shigella flexneri): 0.1 to 2.5 µg/mL (≈ 0.285 to 7.12 µM) | MIC (Klebsiella pneumoniae): 0.1 to 2.5 µg/mL (≈ 0.285 to 7.12 µM) | MIC (Staphylococcus aureus): 0.1 to 2.5 µg/mL (≈ 0.285 to 7.12 µM) | MIC [6]: 0.1 to 2.5 µg/mL (≈ 0.285 to 7.12 µM) | MIC (Salmonella typhi): 0.1 to 2.5 µg/mL (≈ 0.285 to 7.12 µM) | MIC (Escherichia coli [7]): 0.1 to 2.5 µg/mL (≈ 0.285 to 7.12 µM) | MIC (Citrobacter freundii): 0.1 to 2.5 µg/mL (≈ 0.285 to 7.12 µM)

CCn1cc(C(=O)O)c(=O)c2cc(F)c(N3CCN(CN4C(=O)C(=O)c5cc(C)ccc54)C(C)C3)c(F)c21 (configuration not stated)
MIC (Vibrio cholerae): 0.25 to 2.5 µg/mL (≈ 0.477 to 4.77 µM) | MIC (Pseudomonas aeruginosa): 0.25 to 2.5 µg/mL (≈ 0.477 to 4.77 µM) | MIC (Shigella flexneri): 0.25 to 2.5 µg/mL (≈ 0.477 to 4.77 µM) | MIC (Klebsiella pneumoniae): 0.25 to 2.5 µg/mL (≈ 0.477 to 4.77 µM) | MIC (Staphylococcus aureus): 0.25 to 2.5 µg/mL (≈ 0.477 to 4.77 µM) | MIC [6]: 0.25 to 2.5 µg/mL (≈ 0.477 to 4.77 µM) | MIC (Salmonella typhi): 0.25 to 2.5 µg/mL (≈ 0.477 to 4.77 µM) | MIC (Escherichia coli [7]): 0.25 to 2.5 µg/mL (≈ 0.477 to 4.77 µM) | MIC (Citrobacter freundii): 0.25 to 2.5 µg/mL (≈ 0.477 to 4.77 µM)

CCn1cc(C(=O)O)c(=O)c2cc(F)c(N3CCN(CN4C(=O)/C(=N\NC(N)=S)c5cc(Br)ccc54)CC3)cc21
EC50 [5]: 13.9 µg/mL (≈ 22 µM)

COc1c(N2CCN(CN3C(=O)/C(=N\c4ccc(S(=O)(=O)Nc5nc(C)cc(C)n5)cc4)c4cc(F)ccc43)C(C)C2)c(F)cc2c(=O)c(C(=O)O)cn(C3CC3)c12 (configuration not stated)
Activity [8]: 106% | EC50 ([8]; Human immunodeficiency virus 1, 3B, MT4): 12.1 µg/mL (≈ 14.9 µM) | MIC [9]: 1.22 µg/mL (≈ 1.5 µM)

O=C1C(=O)N(CN2CCN(c3cc4c(cc3F)c(=O)c(C(=O)O)cn4C3CC3)CC2)c2ccccc21
MIC (Vibrio cholerae): 0.1 to 0.5 µg/mL (≈ 0.204 to 1.02 µM) | MIC (Pseudomonas aeruginosa): 0.1 to 0.5 µg/mL (≈ 0.204 to 1.02 µM) | MIC (Shigella flexneri): 0.1 to 0.5 µg/mL (≈ 0.204 to 1.02 µM) | MIC (Klebsiella pneumoniae): 0.1 to 0.5 µg/mL (≈ 0.204 to 1.02 µM) | MIC (Staphylococcus aureus): 0.1 to 0.5 µg/mL (≈ 0.204 to 1.02 µM) | MIC [6]: 0.1 to 0.5 µg/mL (≈ 0.204 to 1.02 µM) | MIC (Salmonella typhi): 0.1 to 0.5 µg/mL (≈ 0.204 to 1.02 µM) | MIC (Escherichia coli [7]): 0.1 to 0.5 µg/mL (≈ 0.204 to 1.02 µM) | MIC (Citrobacter freundii): 0.1 to 0.5 µg/mL (≈ 0.204 to 1.02 µM)

CCn1cc(C(=O)O)c(=O)c2cc(F)c(N3CCN(CN4C(=O)/C(=N\c5ccc(S(=O)(=O)Nc6ncccn6)cc5)c5ccccc54)CC3)cc21
LD50 at 168 h [1]: > 4000 mg/kg | ED50 (Escherichia coli [2]): 1.25 mg/kg | Ratio (Escherichia coli [10]): 4.8
